The record followed here is ChEMBL document CHEMBL1150745, “Plant anticancer agents, XLVI. Cytotoxic casbane-type constituents of Agrostistachys hookeri” (1988).

This assay concerns P388. The experiment in a line: Cytotoxicity against mouse P388 cells. It is filed as functional. To be noted: read-out: ED50 (the source's name).

In brackets after ≈: the same amount, converted by molar mass.

As to `C/C1=C/C(=O)C/C(C)=C/[C@H](O)C(=O)/C(C)=C/[C@H]2[C@@H](CC1)C2(C)C`, the EC50 came to 2.8 µg/mL (≈ 8.85 µM).
As to `C/C1=C/[C@H](O)C/C(C)=C/[C@H](O)C(=O)/C(C)=C/[C@H]2[C@@H](CC1)[C@]2(C)CO`, the EC50 turned out to be 0.8 µg/mL (≈ 2.39 µM).
With `C/C1=C\[C@H](O)C(=O)/C(C)=C/[C@@H]2[C@@H](CCC(C)(O)/C=C/C1)C2(C)C` (some centres undefined) [AGROSKERIN] the figure was 1.4 µg/mL (≈ 4.4 µM); with `C/C1=C/[C@H](O)C/C(C)=C/[C@H](O)C(=O)/C(C)=C/[C@H]2[C@@H](CC1)C2(C)C` [AGROSTISTACHIN], 1.4 µg/mL (≈ 4.4 µM).
